From PMC10258898, “Discovery of Novel Hydroxyimine-Tethered Benzenesulfonamides as Potential Human Carbonic Anhydrase IX/XII Inhibitors” (ACS Medicinal Chemistry Letters, 2023)
Where two headings read alike, the source gives them in different places.

Assays:
hCA IX = hCA IX (Homo sapiens, UniProt Q16790); assay: Stopped-flow CO2 hydrase assay, hCA IX inhibition
Procedure: (§1) as indicator, working at the absorbance maximum of 557 nm, with 20 mM Hepes (pH 7.5) as
(§2) buffer, and 20 mM Na2SO4 (for maintaining constant the ionic strength), following the initial
(§3) have been used for determining the initial velocity. The uncatalyzed rates were determined in
(§4) the same manner and subtracted from the total observed rates. Stock solutions of inhibitor
(§5) (0.1 mM) were prepared in distilled−deionized water and dilutions up to 0.01 nM were done
(§6) thereafter with the assay buffer. Inhibitor and enzyme solutions were preincubated together for 15 min at room temperature prior to assay, in order to allow for the formation of the E−I complex. The inhibition constants were subsequently obtained by nonlinear least-squares
(§7) methods using PRISM 3 and the Cheng−Prusoff equation, as reported earlier, and represent
(§8) the mean from at least three different determinations. All CA isofoms were recombinant ones
(§9) obtained in-house as reported earlier2,3.

hCA XII = hCA XII (Homo sapiens, UniProt O43570); assay: Stopped-flow CO2 hydrase assay, hCA XII inhibition; conditions: read-out: Ki (nM) hCA XII, mean from 3 different assays, errors ±5–10%
Procedure: as §1, §2, §3, §4, §5, §6, §7, §8, §9

[1] = read-out: Ki (nM) hCA IX, mean from 3 different assays, errors ±5–10%, stopped-flow CO2 hydrase assay

Sequence of hCA XII (O43570 25-354): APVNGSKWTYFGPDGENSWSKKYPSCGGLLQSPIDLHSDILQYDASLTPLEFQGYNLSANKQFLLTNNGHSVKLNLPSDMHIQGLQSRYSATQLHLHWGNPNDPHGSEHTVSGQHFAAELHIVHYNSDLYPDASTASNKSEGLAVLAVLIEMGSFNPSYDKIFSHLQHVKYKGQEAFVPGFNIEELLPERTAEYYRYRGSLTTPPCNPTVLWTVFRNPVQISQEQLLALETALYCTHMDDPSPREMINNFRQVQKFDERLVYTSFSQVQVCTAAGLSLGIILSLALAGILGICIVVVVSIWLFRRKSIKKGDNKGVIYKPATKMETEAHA

melting point [°C] | Ki (hCA IX; [1]) [nM] | Ki (hCA IX) [nM] | Ki (hCA XII) [nM] | SMILES
310 to 311 | 110 |  |  | NS(=O)(=O)c1ccc(N2CCN(/C(=N/O)c3ccncc3)CC2)cc1 [Compound 27]
320 to 321 | 1180 |  |  | NS(=O)(=O)c1ccc(N2CCN(/C(=N/O)c3ccc(O)cc3)CC2)cc1 [Compound 28]
 | 121 |  |  | NS(=O)(=O)c1ccc(N2CCN(/C(=N/O)c3ccccc3)CC2)cc1 [Compound 29]
321 |  | 43 |  | NS(=O)(=O)c1ccc(N2CCN(C(=NO)c3ccc(Cl)cc3)CC2)cc1 [Compound 30]
310 to 311 | 739 |  |  | COc1ccc(/C(=N\O)N2CCN(c3ccc(S(N)(=O)=O)cc3)CC2)cc1 [Compound 31]
302 to 303 | 912 |  | > 10000 | NS(=O)(=O)c1ccc(N2CCN(/C(=N/O)c3ccc([N+](=O)[O-])cc3)CC2)cc1 [Compound 32]
263 | 1340 |  |  | NS(=O)(=O)c1ccc(N2CCN(/C(=N/O)c3ccc(F)cc3)CC2)cc1 [Compound 33]
263 to 264 | > 10000 |  |  | Cc1ccc(/C(=N\O)N2CCN(c3ccc(S(N)(=O)=O)cc3)CC2)cc1 [Compound 34]
